In patent publication US20090221095A1, “Colorimetric Screening of DNA Binding/Intercalating Agents with Gold Nanoparticle Probes” (NORTHWESTERN UNIVERSITY, priority 2005, published 2009):

Assays:
Format in all cases: binding
[1] = tested on: triplex DNA on chip surface; experiment: Chip-based scanometric detection of triplex DNA binders (silver enhancement); settings: varying salt concentrations (0.1 to 0.3 M NaCl), binder 5 μM, DNA-3 150 nM
Procedure: (§1) For scanometric detection of duplex or triplex DNA binding molecules, Au nanoparticles (1 nM) and DNA binding molecules (5 μM) in 10 mM PBS buffer of varying NaCl concentrations were added to the microarray slide under hybridization wells (Nanosphere, Inc.). For detection of triplex binders, 150 nM DNA-3 was added. DNA hybridization proceeded for 30 min (for duplex DNA binders) or 1 h (for triplex DNA binders) in a humidity chamber. After hybridization, the slides were washed three times with 0.5 M NaNO3 containing 0.02% Tween 20. The arrays were dried using a benchtop spinner. Silver enhancement solution (Nanosphere, Inc.) was added for Au-NP signal amplification (1 mL total volume/array, 1.5-min development time for duplex DNA binding molecules and 3 min for triplex binding molecules). The reaction was terminated by washing the slides with NANOpure® water and spin-drying. Light-scattering images from the silver-enhanced chips were recorded using the high-resolution Verigene ID system (Nanosphere, Inc.).
Capture strands of synthetic oligonucleotides are patterned on a glass chip using a microarrayer. The DNA chip is then exposed to a solution containing three components: 1) complementary DNA (no nanoparticles), 2) DNA functionalized Au nanoparticles (DNA is non-complementary to the arrayed DNA) and 3) DNA binders, Scheme 4. The complementary solution-phase DNA, called DNA-3 in Scheme 2, hybridizes to the DNA on the chip surface and forms a duplex. The Au nanoparticle-bound DNA has the correct sequence to form a triplex with the surface bound duplex through sequence-specific Hoogsteen, or reverse Hoogsteen, base pairing. The triplex structure is relatively unstable at room temperature and will only form in the presence of triplex DNA binding molecules. The presence of the triplex DNA binding molecules increase the stability of the triplex, immobilizing the Au nanoparticles on the chip surface. The chip was then exposed to silver enhancement solution for further signal enhancement and then imaged using a Verigene ID scanner.
The assay was performed in the presence of two triplex binders, coralyn (CORA) and benzo[e]pyridoindole (BePI), seven duplex DNA binders, 4′,6-diamidino-2-phenylindole (DAPI), ellipticine (EIPT), amsacrine (AMSA), daunorubicin (DNR), anthraquinone-2-carboxylic acid (AQ2A), ethidium bromide (EB), and 9-aminoacridine (9-AA))., and one control (no DNA-3). Similar to the DNA duplex, the formation of the DNA triplex is a reversible process which is affected by both temperature and salt concentration. However, compared to the duplex, the stability of the triplex is much more sensitive to salt concentration. Therefore, to determine the relative binding strength of the triplex DNA binders, the assay was performed at varying salt concentrations, FIG. 7. At 0.3 M NaCl, both the strong (BePI) and weaker (CORA) triplex binders show signal.

[2] = tested on: duplex DNA between NP-1 and NP-2; experiment: Naked-eye color change of NP-1/NP-2 nanoassembly at specific temperatures; settings: for color of nanoassembly: NP-1 and NP-2 1.5 nM each, intercalator 5 μM; for trend of intercalator binding affinities for DNA: from the color change with temperature
Source text: This method also utilizes the aggregation-induced, red-to-blue color change associated with 13 nm Au nanoparticles. Gold nanoparticles are functionalized with one of two complementary thiol-modified oligonucleotide strands and are denoted NP-1 and NP-2. When NP-1 and NP-2 are combined, they form aggregates through a reversible DNA hybridization process. This process results in a red-to-blue color change due to a red-shifting and dampening of the nanoparticle plasmon resonance. Increasing the temperature above the melting temperature of the DNA reverses the process, and the particles dissociate with a concomitant blue-to-red color change. […] This increased stability is reflected by an increase in melting temperature. Note that the shape and breadth of the transition is almost independent of the intercalator (FIG. 4). Therefore, by monitoring the blue-to-red color transition of hybridized oligonucleotide-modified Au nanoparticles in the presence of different compounds, the relative strength of intercalator binding can be determined with the naked-eye.
In general, assay methods that can detect drug candidates by the naked eye, without resorting to any instrumentation, are convenient, and for this reason, an assay that could seem for drug candidates based on DNA intercalation would be of great interest. […] As the temperature increases, the color change from blue to red occurs at specific temperatures. At 25° C. all eight cells (one control and seven intercalators) appear light blue/purple in color. At 30° C., the nanoassemblies containing the control and weak intercalators turn red in color leaving only the nanoassemblies containing DAPI, DNR, and EB as blue/purple.

[3] = tested on: duplex DNA on chip surface; experiment: Chip-based scanometric detection of duplex DNA binders (silver enhancement); settings: binder 5 μM
Procedure: N-Hydroxysuccinimide-activated Codelink glass microarray slides (Amersham, G. E. Healthcare) were arrayed with amine-terminated oligonucleotides (5′-TAA CAA TAA-A10-NH2-3′, Integrated DNA Technologies, Inc.) according to the manufacturer's protocol. The oligonucleotides were printed in triplicate using a GME 418 robotic pin-and-ring microarrayer (Affymetrix).
as §1
Capture strands of synthetic oligonucleotides are patterned on a glass chip using a microarrayer. The DNA chip is then exposed to DNA functionalized Au nanoparticles (complementary to the capture sequence) and a duplex DNA binder. […]
The hybridization of single stranded DNA to form duplex DNA is a reversible process and the stability of the duplex is affected by several factors such as temperature and salt concentration. […] Therefore, by performing the nanoparticle hybridization process in the presence of different duplex DNA binders as a function of temperature, the relative binding strength of duplex DNA binders can be determined.

Which scanometric signal [1] does the source give for `O=C(O)c1ccc2c(c1)C(=O)c1ccccc1C2=O` [AQ2A, anthraquinone-2-carboxylic acid] here?
The scanometric signal was “No signal”.

How did the scanometric signal [1] turn out when `N=C(N)c1ccc(-c2cc3ccc(C(=N)N)cc3[nH]2)cc1` [DAPI, 4′,6-diamidino-2-phenylindole] was run?
Its scanometric signal is “No signal”.

What about the color of nanoassembly ([2]; 30° C.) of the same compound?
The color of nanoassembly was “blue/purple”.

What about the color of nanoassembly ([2]; 40° C.) of the same compound?
Its color of nanoassembly is “turn red except the nanoassembly containing DAPI”.

And the “trend of intercalator binding affinities for DNA” value [2]?
Its value is “DAPI>DNR˜EB>other intercalators”.

And the “signal after silver enhancement” value ([3]; hybridization at 30° C.)?
Its value is “leaving the intermediate and strong DNA binders”.

What about the “signal after silver enhancement” value ([3]; temperature further increased above 30° C.) of the same compound?
Its value is “leaving only the strong duplex DNA binder”.

Which scanometric signal [1] does the source give for `Cc1c2ccncc2c(C)c2c1[nH]c1ccccc12` [EIPT, ellipticine] here?
The scanometric signal was “No signal”.

How did the scanometric signal [1] turn out when `Nc1c2ccccc2nc2ccccc12` [9-AA, 9-aminoacridine] was run?
Its scanometric signal is “No signal”.

Which results are given for `COc1cccc2c1C(=O)c1c(O)c3c(c(O)c1C2=O)C[C@@](O)(C(C)=O)C[C@@H]3O[C@H]1C[C@H](N)[C@H](O)[C@H](C)O1` [DNR, daunorubicin]?
scanometric signal [1]: No signal; color of nanoassembly ([2]; 30° C.): blue/purple; trend of intercalator binding affinities for DNA [2]: DAPI>DNR˜EB>other intercalators; signal after silver enhancement ([3]; hybridization at 30° C.): leaving the intermediate and strong DNA binders
